The text below walks through data of ChEMBL document CHEMBL1155691, “Novel extracellular diterpenoids with biological activity from the cyanobacterium Nostoc commune” (2000).

Format in all cases: functional
For test [1], the system named is Staphylococcus epidermidis. Kind of test: Antimicrobial activity against Staphylococcus epidermidis ATCC 12228.
The next test concerns Bacillus cereus. Kind of test: Antimicrobial activity against Bacillus cereus ATCC 10702.
The subject of another test is Escherichia coli. Description: Antimicrobial activity against Escherichia coli ATCC 25922.
A further test deals with Biomphalaria glabrata. Description: Antimolluscicidal activity against Biomphalaria glabrata.
Another test deals with KB. Description: Cytotoxicity against human KB cells.
The test system of a further test is Caco-2. Description: Cytotoxicity against human Caco-2 cells.

In brackets after ≈: the same amount, converted by molar mass.

Take `O=C(N[C@H](CO)[C@H](O)c1ccc([N+](=O)[O-])cc1)C(Cl)Cl` [CHLORAMPHENICOL]: the MIC is 4 µg/mL (≈ 12.4 µM) in test [1] and 8 µg/mL (≈ 24.8 µM) against Bacillus cereus.

Consider `C[C@@H]1CC[C@@]2(C)[C@@H](CC[C@]3(C)[C@@H]2CC[C@@]3(C)CO)[C@]1(C)Cc1cc(C(=O)O)ccc1O` [COMNASTIN A], for which the MIC in test [1] is 16 µg/mL (≈ 37.3 µM); against Bacillus cereus, 32 µg/mL (≈ 74.7 µM); with Escherichia coli, 128 µg/mL (≈ 299 µM).

As for `C[C@@H]1CC[C@@]2(C)[C@@H](CC[C@]3(C)[C@@H]2CC[C@@]3(C)C=O)[C@]1(C)Cc1cc(C(=O)O)ccc1O` [COMNASTIN B], the MIC in test [1] came out at 16 µg/mL (≈ 37.5 µM); against Bacillus cereus, 32 µg/mL (≈ 75 µM); with Biomphalaria glabrata, 20 µg/mL (≈ 46.9 µM); against Escherichia coli, 128 µg/mL (≈ 300 µM); with KB, 0.4 µg/mL (≈ 0.938 µM); in the test with Caco-2 it was 0.18 µg/mL (≈ 0.422 µM).

Consider `C[C@@H]1CC[C@@]2(C)[C@@H](CC[C@]3(C)[C@@H]2CC[C@@]3(C)C(=O)O)[C@]1(C)Cc1cc(C(=O)O)ccc1O` [COMNASTIN C], for which the MIC in test [1] came out at 16 µg/mL (≈ 36.2 µM); in the test on Bacillus cereus it was 32 µg/mL (≈ 72.3 µM); against Escherichia coli, 64 µg/mL (≈ 145 µM).

For `COC(OC)[C@]1(C)CC[C@@H]2[C@@]3(C)CC[C@@H](C)[C@@](C)(Cc4cc(C(=O)O)ccc4O)[C@@H]3CC[C@]21C` [COMNASTIN D], the MIC was determined as 32 µg/mL (≈ 67.7 µM) in test [1], 16 µg/mL (≈ 33.9 µM) against Bacillus cereus and 128 µg/mL (≈ 271 µM) in the test with Escherichia coli.

With `CC(=O)[C@@H]1CC[C@@H]2[C@@]3(C)CC[C@@H](C)[C@@](C)(Cc4cc(C(=O)O)ccc4O)[C@@H]3CC[C@]21C` [COMNASTIN E], the results for the MIC (in test [1]; against Bacillus cereus) were 4 µg/mL (≈ 9.38 µM) and 128 µg/mL (≈ 300 µM), respectively.

In the case of `COc1cc([C@@H]2c3cc4c(cc3[C@H](O)[C@H]3COC(=O)[C@H]23)OCO4)cc(OC)c1OC` [PODOFILOX], the values for the MIC in the test on KB and against Caco-2 were 0.01 µg/mL (≈ 0.0241 µM) and 0.02 µg/mL (≈ 0.0483 µM), respectively.

Molecule `CN(C)[C@@H]1C(O)=C(C(N)=O)C(=O)[C@@]2(O)C(O)=C3C(=O)c4c(O)cccc4[C@@](C)(O)[C@H]3C[C@@H]12` [TETRACYCLINE] yielded an MIC against Escherichia coli of 64 µg/mL (≈ 144 µM).
